Experiments:
[1] = system: green foxtail; test: Soil treatment test for upland field; format: in vivo, Setaria viridis; design: key: 0 = normal development, 5 = all killed; conditions: 500 g/ha, 3 weeks, glass house 25° C.
Outline: (§1)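 Using a pre-emergence soil application at 500 g/ha, treated pots were held 3 weeks in a glass house averaging 25° C. Injury was graded on a 0–5 scale against non-treated pots; "-" marks entries not investigated.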

[2] = system: velvetleaf; test: Foliar spread test for upland field; format: in vivo, Abutilon theophrasti; design: key: 0 = normal development, 5 = all killed (6 ranks vs. untreated); conditions: foliar spray, 500 ppm, 3 weeks, glass house 25° C.
Outline: (§2)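 Scores on a 0–5 scale (0 normal development, 5 all killed), relative to untreated controls, were taken 3 weeks post-treatment in a 25 °C glass house. Treatment was a uniform foliar spray at 500 ppm (0.5% surfactant) onto roughly 2-week-old soil-grown plants.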

[3] = system: morning glory; test: Foliar spread test for upland field; format: in vivo, Ipomoea spps.; design: key: 0 = normal development, 5 = all killed (6 ranks vs. untreated); conditions: foliar spray, 500 ppm, 3 weeks, glass house 25° C.
Outline: as §2

[4] = system: barnyardgrjass; test: Foliar spread test for upland field; format: in vivo, Eschinochloa crusgalli; design: key: 0 = normal development, 5 = all killed (6 ranks vs. untreated); conditions: foliar spray, 500 ppm, 3 weeks, glass house 25° C.
Outline: as §2

[5] = system: corn; test: Foliar spread test for upland field; format: in vivo; design: key: 0 = normal development, 5 = all killed (6 ranks vs. untreated); conditions: foliar spray, 500 ppm, 3 weeks, glass house 25° C.
Outline: as §2

[6] = system: solgum; test: Foliar spread test for upland field; format: in vivo; design: key: 0 = normal development, 5 = all killed (6 ranks vs. untreated); conditions: foliar spray, 500 ppm, 3 weeks, glass house 25° C.
Outline: as §2

[7] = system: wheat; test: Foliar spread test for upland field; format: in vivo; design: key: 0 = normal development, 5 = all killed (6 ranks vs. untreated); conditions: foliar spray, 500 ppm, 3 weeks, glass house 25° C.
Outline: as §2

[8] = system: soybean; test: Foliar spread test for upland field; format: in vivo; design: key: 0 = normal development, 5 = all killed (6 ranks vs. untreated); conditions: foliar spray, 500 ppm, 3 weeks, glass house 25° C.
Outline: as §2

[9] = system: cotton; test: Foliar spread test for upland field; format: in vivo; design: key: 0 = normal development, 5 = all killed (6 ranks vs. untreated); conditions: foliar spray, 500 ppm, 3 weeks, glass house 25° C.
Outline: as §2

[10] = system: sugar beat; test: Foliar spread test for upland field; format: in vivo; design: key: 0 = normal development, 5 = all killed (6 ranks vs. untreated); conditions: foliar spray, 500 ppm, 3 weeks, glass house 25° C.
Outline: as §2

[11] = system: annual bluegrass; test: Soil treatment test for upland field; format: in vivo, Poa annua; design: key: 0 = normal development, 5 = all killed; conditions: 500 g/ha, 3 weeks, glass house 25° C.
Outline: as §1

[12] = system: blackgrass; test: Foliar spread test for upland field; format: in vivo, Alopecurus aegualis; design: key: 0 = normal development, 5 = all killed (6 ranks vs. untreated); conditions: foliar spray, 500 ppm, 3 weeks, glass house 25° C.
Outline: as §2

[13] = system: livid amaranth; test: Foliar spread test for upland field; format: in vivo, Amaranthus lividus; design: key: 0 = normal development, 5 = all killed (6 ranks vs. untreated); conditions: foliar spray, 500 ppm, 3 weeks, glass house 25° C.
Outline: as §2

[14] = system: Xanthium pensylvanicum; test: Foliar spread test for upland field; format: in vivo; design: key: 0 = normal development, 5 = all killed; conditions: foliar spray, 500 ppm, 3 weeks, glass house 25° C.
Procedure: (§3) The herbicidal effects are evaluated according to the following 6 ranks as compared with non-treated district. (0: normal development, 1: Less damaged, 2: Slightly damaged, 3: Moderately damaged, 4: Severely damaged, 5: All killed). Incidentally, “-” in the column means not investigated.
(§4) Wagner pots, each having an area of 1/5000 are, were packed with volcanic ash soil and then each seed of corn, soybean, cotton, wheat, solgum, sugar beat, Large crabgrass, barnyardgrjass, green foxtail, blackgrass, annual bluegrass, common lambsquarters, livid amaranth, velvetleaf, morning glory, Xanthium pensylvanicum and Cassia obtusifolia was planted, covered with soil and grown in a glass house at an average temperature of 25° C. for about 2 weeks.
(§5) Each wettable powder of the desired compounds (I) shown in Tables 1 to 21, 24, 25, 28 and 29 prepared in accordance with Example 2 was diluted to 500 ppm with water containing a surfactant (0.5%) and then uniformly sprayed on the above respective plants.
(§6) After these plants were controlled in a glass house at an average temperature of 25° C. for 3 weeks, the herbicidal effects thereof were investigated.
(§7) The herbicidal effects were evaluated according to the evaluation method described in the above (1).

[15] = system: Cassia obtusifolia; test: Foliar spread test for upland field; format: in vivo; design: key: 0 = normal development, 5 = all killed; conditions: foliar spray, 500 ppm, 3 weeks, glass house 25° C.
Procedure: as §3, §4, §5, §6, §7

[16] = system: bulrush; test: Herbicidal test for paddy field; format: in vivo, Scrips juncoides; conditions: 500 g/ha, dropwise addition to paddy water at 1.5 leaf stage of barnyard grass; glass house 25° C., 3 weeks; rank 0-5 vs non-treated district
Outline: (§8)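 Wettable-powder formulations in water with 0.05% surfactant were dripped onto flooded (3 cm) Ube alluvial-soil pots at 500 g/ha, applied at barnyard grass 1.5-leaf stage. Plants were kept in a glasshouse at 25° C. for 3 weeks. Damage was scored 0 (normal) to 5 (all killed) versus untreated plants.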

[17] = system: arrowhead; test: Herbicidal test for paddy field; format: in vivo, Sagittaria pygmaea; conditions: 500 g/ha, dropwise addition to paddy water at 1.5 leaf stage of barnyard grass; glass house 25° C., 3 weeks; rank 0-5 vs non-treated district
Procedure: Wagner pots, each having an area of 1/5000 are, were packed with Ube soil (alluvial soil) and planted with seeds or tubers of young rice plant, barnyard grass, bulrush, Cyperus serotinus Rottb., arrowhead and monochoria. Then, the pots were filled with water to a depth of 3 cm.
Each wettable powder of the desired Compounds (I) shown in Tables 1 to 21, 24, 25, 28 and 29 prepared in accordance with Example 2 was diluted with water containing a surfactant (0.05%) and subjected to dropwise addition treatment by using pipet so that an effective concentration of the compound (I) in each herbicide became 500 g/ha at 1.5 leaf stage of barnyard grass.
(§9) These plants were controlled in a glass house at an average temperature of 25° C. for 3 weeks, and then herbicidal effects thereof were investigated.
as §3

[18] = system: common lambsquarters; test: Soil treatment test for upland field; format: in vivo, Chenopodium album; design: key: 0 = normal development, 5 = all killed; conditions: 500 g/ha, 3 weeks, glass house 25° C.
Outline: as §1

[19] = system: common Cocklebur (Xanthium strumarium); test: Soil treatment test for upland field; format: in vivo; conditions: 500 g/ha, 3 weeks, glass house 25° C.
Procedure: as §3
(§10) Wagner pots, each having an area of 1/5000 are, were packed with Ube soil (alluvial soil), and then each seed of corn, soybean, cotton, wheat, solgum, sugar beat, Large crabgrass, barnyard grass, green foxtail, blackgrass, annual bluegrass, common lambsquarters, livid amaranth, velvetleaf, morning glory, common Cocklebur (Xanthium strumarium) and sicklepod (Cassia obtusifolia) were planted and covered with soil.
(§11) Each wettable powder of the desired compounds (I) shown in Tables 1 to 21, 24, 25, 28 and 29 prepared in accordance with Example 2 was diluted with water containing a surfactant (0.05%) and uniformly sprayed on the surface of each soil so that an effective concentration of the compound (I) in each herbicide became 500 g/ha.
as §9, §7

[20] = system: sicklepod (Cassia obtusifolia); test: Soil treatment test for upland field; format: in vivo; conditions: 500 g/ha, 3 weeks, glass house 25° C.
Procedure: as §3, §10, §11, §9, §7

[21] = system: common lambsquarters; test: Foliar spread test for upland field; format: in vivo, Chenopodium album; design: key: 0 = normal development, 5 = all killed (6 ranks vs. untreated); conditions: foliar spray, 500 ppm, 3 weeks, glass house 25° C.
Outline: as §2

[22] = system: velvetleaf; test: Soil treatment test for upland field; format: in vivo, Abutilon theophrasti; design: key: 0 = normal development, 5 = all killed; conditions: 500 g/ha, 3 weeks, glass house 25° C.
Outline: as §1

[23] = system: annual bluegrass; test: Foliar spread test for upland field; format: in vivo, Poa annua; design: key: 0 = normal development, 5 = all killed (6 ranks vs. untreated); conditions: foliar spray, 500 ppm, 3 weeks, glass house 25° C.
Outline: as §2

[24] = system: morning glory; test: Soil treatment test for upland field; format: in vivo, Ipomoea spps.; design: key: 0 = normal development, 5 = all killed; conditions: 500 g/ha, 3 weeks, glass house 25° C.
Outline: as §1

[25] = system: barnyard grass; test: Herbicidal test for paddy field; format: in vivo, Eschinochloa crusgalli; conditions: 500 g/ha, dropwise addition to paddy water at 1.5 leaf stage of barnyard grass; glass house 25° C., 3 weeks; rank 0-5 vs non-treated district
Outline: as §8

[26] = system: livid amaranth; test: Soil treatment test for upland field; format: in vivo, Amaranthus lividus; design: key: 0 = normal development, 5 = all killed; conditions: 500 g/ha, 3 weeks, glass house 25° C.
Outline: as §1

[27] = system: Large crabgrass; test: Foliar spread test for upland field; format: in vivo, Digitaria adscendens; design: key: 0 = normal development, 5 = all killed (6 ranks vs. untreated); conditions: foliar spray, 500 ppm, 3 weeks, glass house 25° C.
Outline: as §2

[28] = system: Cyperus serotinus Rottb.; test: Herbicidal test for paddy field; format: in vivo; conditions: 500 g/ha, dropwise addition to paddy water at 1.5 leaf stage of barnyard grass; glass house 25° C., 3 weeks; rank 0-5 vs non-treated district
Outline: as §8

[29] = system: green foxtail; test: Foliar spread test for upland field; format: in vivo, Setaria viridis; design: key: 0 = normal development, 5 = all killed (6 ranks vs. untreated); conditions: foliar spray, 500 ppm, 3 weeks, glass house 25° C.
Outline: as §2

[30] = system: corn; test: Soil treatment test for upland field; format: in vivo; design: key: 0 = normal development, 5 = all killed; conditions: 500 g/ha, 3 weeks, glass house 25° C.
Outline: as §1

[31] = system: solgum; test: Soil treatment test for upland field; format: in vivo; design: key: 0 = normal development, 5 = all killed; conditions: 500 g/ha, 3 weeks, glass house 25° C.
Outline: as §1

[32] = system: wheat; test: Soil treatment test for upland field; format: in vivo; design: key: 0 = normal development, 5 = all killed; conditions: 500 g/ha, 3 weeks, glass house 25° C.
Outline: as §1

[33] = system: sugar beat; test: Soil treatment test for upland field; format: in vivo; design: key: 0 = normal development, 5 = all killed; conditions: 500 g/ha, 3 weeks, glass house 25° C.
Outline: as §1

[34] = system: barnyard grass; test: Soil treatment test for upland field; format: in vivo, Eschinochloa crusgalli; design: key: 0 = normal development, 5 = all killed; conditions: 500 g/ha, 3 weeks, glass house 25° C.
Outline: as §1

[35] = system: Large crabgrass; test: Soil treatment test for upland field; format: in vivo, Digitaria adscendens; design: key: 0 = normal development, 5 = all killed; conditions: 500 g/ha, 3 weeks, glass house 25° C.
Outline: as §1

[36] = system: blackgrass; test: Soil treatment test for upland field; format: in vivo, Alopecurus aegualis; design: key: 0 = normal development, 5 = all killed; conditions: 500 g/ha, 3 weeks, glass house 25° C.
Outline: as §1

| SMILES | Effects Green foxtail [1] | Effects Velvetleaf [2] | Effects Morning glory [3] | Effects Barnyardgrass [4] | Effects Corn [5] | Effects Solgum [6] | Effects Wheat [7] | Effects Soybean [8] | Effects Sotton [9] | Effects Sugar beat [10] | Effects Annual bluegrass [11] | Effects Blackgrass [12] | Effects Livid amaranth [13] | Effects Common Cocklebur [14] | Effects Sicklepod [15] | Effects Bulrush [16] | Effects Arrowhead [17] | Effects Common lambsquarters [18] | Effects Sicklepod [20] | Effects Common lambsquarters [21] | other results |
| --- | --- | --- | --- | --- | --- | --- | --- | --- | --- | --- | --- | --- | --- | --- | --- | --- | --- | --- | --- | --- | --- |
| FC(F)(F)c1cccc(Oc2cccc(-c3nc4ccccc4o3)n2)c1 [I-a-1] | 5 | 4 | 5 | 3 | 2 | 2 | 2 | 5 | 4 | 4 | 5 | 2 | 5 | 4 | 5 | 2 | 1 | 5 | 3 | 5 | Effects Common Cocklebur [19]: 5; Effects Velvetleaf [22]: 3; Effects Annual bluegrass [23]: 4; Effects Morning glory [24]: 4; Effects Barnyardgrass [25]: 4; Effects Livid amaranth [26]: 5; Effects Large crabgrass [27]: 4; Effects Cyperus serotinus Rottb. [28]: 2; Effects Green foxtail [29]: 5; Effects Corn [30]: 0; Effects Solgum [31]: 2; Effects Wheat [32]: 1; Effects Sugar beat [33]: 5; Effects Barnyardgrass [34]: 4; Effects Large crabgrass [35]: 5; Effects Blackgrass [36]: 4 |
| Fc1ccc2oc(-c3cccc(Oc4cccc(C(F)(F)F)c4)n3)nc2c1 [I-a-2] | 5 | 4 | 5 | 3 | 2 | 2 | 2 | 3 | 4 | 4 | 5 | 3 | 5 | 4 | 4 | 3 | 1 | 5 | 3 | 5 | Effects Common Cocklebur [19]: 3; Effects Velvetleaf [22]: 5; Effects Annual bluegrass [23]: 4; Effects Morning glory [24]: 5; Effects Barnyardgrass [25]: 4; Effects Livid amaranth [26]: 5; Effects Large crabgrass [27]: 4; Effects Green foxtail [29]: 5; Effects Corn [30]: 2; Effects Solgum [31]: 1; Effects Wheat [32]: 1; Effects Sugar beat [33]: 5; Effects Barnyardgrass [34]: 4; Effects Large crabgrass [35]: 5; Effects Blackgrass [36]: 5 |
| COc1ccc2oc(-c3cccc(Oc4cccc(C(F)(F)F)c4)n3)nc2c1 [I-a-4] | 1 | 3 | 5 | 0 | 1 | 1 | 1 | 2 | 2 | 4 | 0 | 0 | 5 | 3 | 4 | 0 | 0 | 0 | 0 | 5 | Effects Velvetleaf [22]: 1; Effects Annual bluegrass [23]: 1; Effects Morning glory [24]: 1; Effects Barnyardgrass [25]: 0; Effects Large crabgrass [27]: 1; Effects Cyperus serotinus Rottb. [28]: 0; Effects Green foxtail [29]: 1; Effects Corn [30]: 0; Effects Solgum [31]: 0; Effects Sugar beat [33]: 0; Effects Barnyardgrass [34]: 3; Effects Large crabgrass [35]: 0; Effects Blackgrass [36]: 0 |

From patent US7402548B2, “Benzoxazole compounds, process for producing the same and herbicides” (Kyoyu Agri Co., Ltd., priority 2000, dated 2008)
